# Data taken from patent US20240116912A1, “COMPOUNDS AND METHODS FOR MODULATING FXR” (Terns Pharmaceuticals, Inc., priority 2020, published 2024).
# Values joined by “and” are separate entries in the source; they are usually repeats but may differ in a detail not shown here. Identical values can stand only once.
# Columns and labels:
# [1] = target: full length human FXR protein (Homo sapiens (Human), UniProt Q96RI1); assay: FXR cellular assay (FXR-SRCP β-gal enzyme fragment complementation in CHO-K1 cells, chemiluminescence); format: cell-based; conditions: CHO-K1 cells with SRCP-EA and ProLink-labeled FXR, 0-10 micromolar compound, 37° C. for 6h, read-out: EC50 FXR-cell Luminescence/
# Chain of full length human FXR protein (Q96RI1 whole entry, the tested form may be a part): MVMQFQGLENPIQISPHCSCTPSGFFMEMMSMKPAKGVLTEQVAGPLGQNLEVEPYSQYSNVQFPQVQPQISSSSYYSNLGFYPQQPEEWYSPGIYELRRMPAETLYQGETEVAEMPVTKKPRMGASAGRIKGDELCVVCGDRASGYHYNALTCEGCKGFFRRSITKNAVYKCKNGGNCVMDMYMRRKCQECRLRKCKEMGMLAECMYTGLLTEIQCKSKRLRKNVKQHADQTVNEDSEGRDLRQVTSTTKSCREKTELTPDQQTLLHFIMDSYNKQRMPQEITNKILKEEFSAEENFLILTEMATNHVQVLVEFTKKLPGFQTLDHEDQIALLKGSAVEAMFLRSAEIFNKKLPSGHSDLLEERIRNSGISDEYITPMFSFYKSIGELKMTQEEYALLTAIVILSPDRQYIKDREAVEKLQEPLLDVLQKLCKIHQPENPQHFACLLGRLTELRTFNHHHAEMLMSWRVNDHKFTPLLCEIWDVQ
# How it was run: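 CHO-K1 cells stably expressing ProLink-tagged full-length FXR and SRCP-EA treated with compound (0-10 micromolar, 1% DMSO) for 6 h at 37 °C. Ligand-driven FXR-coactivator binding reconstitutes β-gal; chemiluminescence read after 1 h detection reagent at room temperature.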
# [2] = target: ligand binding domain (LBD) of recombinant human FXR (Homo sapiens (Human), UniProt Q96RI1); assay: FXR cell free coactivator (SRC-1) recruitment assay, TR-FRET; conditions: FXR LBD (amino acids 244-476) with labeled SRC-1 domain, 25° C. for 60 minutes, activity relative to CDCA maximum; read-out: EC50 FXR- Biochemical TR-FRET/μM
# Chain of ligand binding domain (LBD) of recombinant human FXR (Q96RI1 254-486): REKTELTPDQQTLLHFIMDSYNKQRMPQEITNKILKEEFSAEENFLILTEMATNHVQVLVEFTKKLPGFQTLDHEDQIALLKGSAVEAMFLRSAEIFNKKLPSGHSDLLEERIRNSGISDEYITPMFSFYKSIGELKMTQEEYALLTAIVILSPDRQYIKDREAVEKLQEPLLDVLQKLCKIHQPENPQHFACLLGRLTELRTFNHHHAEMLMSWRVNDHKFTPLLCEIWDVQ
# Chain of ligand binding domain (LBD) of recombinant human FXR (Q15788 whole entry partner, the tested form may be a part): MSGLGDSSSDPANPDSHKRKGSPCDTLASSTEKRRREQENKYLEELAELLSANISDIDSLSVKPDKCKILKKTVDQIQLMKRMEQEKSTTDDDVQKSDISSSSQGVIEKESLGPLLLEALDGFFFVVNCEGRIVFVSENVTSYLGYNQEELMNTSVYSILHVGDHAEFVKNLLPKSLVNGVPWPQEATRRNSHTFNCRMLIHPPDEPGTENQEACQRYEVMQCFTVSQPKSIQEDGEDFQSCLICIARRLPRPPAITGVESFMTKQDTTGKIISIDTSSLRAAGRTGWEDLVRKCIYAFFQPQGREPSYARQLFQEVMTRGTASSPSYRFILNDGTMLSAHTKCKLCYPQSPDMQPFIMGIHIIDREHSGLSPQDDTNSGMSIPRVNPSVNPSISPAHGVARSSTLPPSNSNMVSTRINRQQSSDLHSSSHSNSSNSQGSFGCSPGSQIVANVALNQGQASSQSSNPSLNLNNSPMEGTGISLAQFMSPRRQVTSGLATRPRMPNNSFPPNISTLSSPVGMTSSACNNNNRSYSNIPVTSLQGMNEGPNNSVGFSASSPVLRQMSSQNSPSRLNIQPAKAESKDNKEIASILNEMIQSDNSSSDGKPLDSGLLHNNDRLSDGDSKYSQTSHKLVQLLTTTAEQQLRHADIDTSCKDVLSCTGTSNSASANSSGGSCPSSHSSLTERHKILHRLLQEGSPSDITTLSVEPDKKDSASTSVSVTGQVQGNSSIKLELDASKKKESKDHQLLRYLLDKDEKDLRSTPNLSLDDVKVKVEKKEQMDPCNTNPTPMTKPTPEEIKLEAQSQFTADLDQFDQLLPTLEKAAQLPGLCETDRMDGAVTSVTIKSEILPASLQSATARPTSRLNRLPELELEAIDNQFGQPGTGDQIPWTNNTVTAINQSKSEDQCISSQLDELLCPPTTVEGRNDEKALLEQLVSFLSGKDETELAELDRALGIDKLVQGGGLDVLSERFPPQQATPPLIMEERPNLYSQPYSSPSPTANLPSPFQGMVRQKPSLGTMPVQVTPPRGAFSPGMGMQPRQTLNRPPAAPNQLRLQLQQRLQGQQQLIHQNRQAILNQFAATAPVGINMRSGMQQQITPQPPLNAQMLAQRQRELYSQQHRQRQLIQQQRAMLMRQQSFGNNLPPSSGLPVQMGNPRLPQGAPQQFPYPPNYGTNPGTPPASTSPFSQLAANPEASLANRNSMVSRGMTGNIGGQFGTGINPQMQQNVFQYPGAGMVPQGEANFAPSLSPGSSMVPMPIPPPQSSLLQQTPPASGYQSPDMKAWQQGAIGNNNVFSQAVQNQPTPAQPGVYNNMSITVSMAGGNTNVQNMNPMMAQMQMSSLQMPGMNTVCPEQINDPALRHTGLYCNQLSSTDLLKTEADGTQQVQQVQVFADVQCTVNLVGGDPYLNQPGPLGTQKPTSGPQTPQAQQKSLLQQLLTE
# How it was run: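 Purified SF9-expressed FXR LBD (aa 244-476) was incubated with compounds (0-10 micromolar) and labeled SRC-1 interaction domain in TR-FRET coregulator buffer G, 60 min at 25° C, 1.2% DMSO. Activity at each concentration was taken as percent of maximal CDCA response to build dose-response curves.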
EC50 [1],EC50 [2],Structure (SMILES)
779 nM,0.104 µM,"O=c1cc(-c2ccc(N3CCC(OCc4c(-c5ccccc5OC(F)(F)F)noc4C4CC4)CC3)nc2)o[nH]1 [Example 60, 5-(6-(4-((5-cyclopropyl-3-(2-(trifluoromethoxy)phenyl)isoxazol-4-yl)methoxy)piperidin-1-yl)pyridin-3-yl)isoxazol-3(2H)-one]"
1920 nM,0.298 µM,"O=c1[nH]nc(-c2ccc(N3CCC(OCc4c(-c5ccccc5OC(F)(F)F)noc4C4CC4)CC3)nc2)o1 [Example 61, 5-(6-(4-((5-cyclopropyl-3-(2-(trifluoromethoxy)phenyl)isoxazol-4-yl)methoxy)piperidin-1-yl)pyridin-3-yl)-1,3,4-oxadiazol-2(3H)-one]"
> 10000 nM and 4730 nM,6.35 µM and 6.07 µM,"O=c1cn[nH]c(=O)n1-c1ccc(N2CCC(OCc3c(-c4c(Cl)cccc4Cl)noc3C3CC3)CC2)cc1 [Example 62, 4-(4-(4-((5-cyclopropyl-3-(2,6-dichlorophenyl)isoxazol-4-yl)methoxy)piperidin-1-yl)phenyl)-1,2,4-triazine-3,5(2H,4H)-dione]"
2660 nM,0.215 µM,"O=c1[nH]c(-c2ccc(N3CCC(OCc4c(-c5c(F)cccc5F)noc4C4CC4)C(F)(F)C3)nc2)no1 (stereo not shown) [Example 63, 3-(6-(4-((5-cyclopropyl-3-(2,6-difluorophenyl)isoxazol-4-yl)methoxy)-3,3-difluoropiperidin-1-yl)pyridin-3-yl)-1,2,4-oxadiazol-5(4H)-one]"
2310 nM,0.07 µM,"O=c1[nH]c(-c2ccc(N3CCC(OCc4c(-c5ccccc5OC(F)(F)F)noc4C4CC4)C(F)(F)C3)nc2)no1 (stereo not shown) [Example 64, 3-(6-(4-((5-cyclopropyl-3-(2-(trifluoromethoxy)phenyl)isoxazol-4-yl)methoxy)-3,3-difluoropiperidin-1-yl)pyridin-3-yl)-1,2,4-oxadiazol-5(4H)-one]"
> 10000 nM,0.233 µM,"Cn1nc(N2CCC(OCc3c(-c4c(Cl)cccc4Cl)noc3C3CC3)CC2)cc1-c1noc(=O)[nH]1 [Example 70, 3-(3-(4-((5-cyclopropyl-3-(2,6-dichlorophenyl)isoxazol-4-yl)methoxy)piperidin-1-yl)-1-methyl-1H-pyrazol-5-yl)-1,2,4-oxadiazol-5(4H)-one]"
24.7 nM,0.0021 µM,"C[C@@H]1C[C@H](OCc2c(-c3c(Cl)cccc3Cl)noc2C2CC2)CCN1c1ccc(-c2noc(=O)[nH]2)cn1 [Example 71, 3-(6-((2R,4R)-4-((5-cyclopropyl-3-(2,6-dichlorophenyl)isoxazol-4-yl)methoxy)-2-methylpiperidin-1-yl)pyridin-3-yl)-1,2,4-oxadiazol-5(4H)-one]"
54.9 nM,0.0045 µM,"C[C@@H]1C[C@H](OCc2c(-c3ccccc3Cl)noc2C2CC2)CCN1c1ccc(-c2noc(=O)[nH]2)cn1 [Example 72, 3-(6-((2R,4R)-4-((3-(2-chlorophenyl)-5-cyclopropylisoxazol-4-yl)methoxy)-2-methylpiperidin-1-yl)pyridin-3-yl)-1,2,4-oxadiazol-5(4H)-one]"
350 nM,0.0476 µM,"C[C@@H]1C[C@H](OCc2c(-c3c(F)cccc3F)noc2C2CC2)CCN1c1ccc(-c2noc(=O)[nH]2)cn1 [Example 73, 3-(6-((2R,4R)-4-((5-cyclopropyl-3-(2,6-difluorophenyl)isoxazol-4-yl)methoxy)-2-methylpiperidin-1-yl)pyridin-3-yl)-1,2,4-oxadiazol-5(4H)-one]"
1450 nM,0.107 µM,"O=c1[nH]c(-c2ccc(N3CCC(OCc4c(-c5c(F)cccc5F)noc4C4CC4)CC3)nc2)no1 [Example 74, 3-(6-(4-((5-cyclopropyl-3-(2,6-difluorophenyl)isoxazol-4-yl)methoxy)piperidin-1-yl)pyridin-3-yl)-1,2,4-oxadiazol-5(4H)-one]"

# The remaining lines, values behind:
Structure (SMILES),EC50 [1],EC50 [2]
"O=c1[nH]c(-c2ccc(N3CCC(OCc4c(-c5c(F)cccc5F)noc4C4CC4)C(F)(F)C3)cc2)no1 (stereo not shown) [Example 55, 3-(4-(4-((5-cyclopropyl-3-(2,6-difluorophenyl)isoxazol-4-yl)methoxy)-3,3-difluoropiperidin-1-yl)phenyl)-1,2,4-oxadiazol-5(4H)-one]",852 nM,0.174 µM
"O=c1[nH]c(-c2ncc(N3CCC(OCc4c(-c5c(Cl)cccc5Cl)noc4C4CC4)CC3)s2)no1 [Example 56, 3-(5-(4-((5-cyclopropyl-3-(2,6-dichlorophenyl)isoxazol-4-yl)methoxy)piperidin-1-yl)thiazol-2-yl)-1,2,4-oxadiazol-5(4H)-one]",887 nM,0.0431 µM
"O=c1[nH]nc(-c2ccc(N3CCC(OCc4c(-c5ccccc5OC(F)(F)F)noc4C4CC4)CC3)cc2)c(=O)[nH]1 [Example 57, 6-(4-(4-((5-cyclopropyl-3-(2-(trifluoromethoxy)phenyl)isoxazol-4-yl)methoxy)piperidin-1-yl)phenyl)-1,2,4-triazine-3,5(2H,4H)-dione]",497 nM,0.0847 µM
"O=c1[nH]c(-c2cc(N3CCC(OCc4c(-c5c(Cl)cccc5Cl)noc4C4CC4)CC3)n[nH]2)no1 [Example 58, 3-(3-(4-((5-cyclopropyl-3-(2,6-dichlorophenyl)isoxazol-4-yl)methoxy)piperidin-1-yl)-1H-pyrazol-5-yl)-1,2,4-oxadiazol-5(4H)-one]",11700 nM,0.421 µM
"O=c1cc(-c2ccc(N3CCC(OCc4c(-c5c(Cl)cccc5Cl)noc4C4CC4)CC3)nc2)o[nH]1 [Example 59, 5-(6-(4-((5-cyclopropyl-3-(2,6-dichlorophenyl)isoxazol-4-yl)methoxy)piperidin-1-yl)pyridin-3-yl)isoxazol-3(2H)-one]",264 nM,0.0179 µM
"O=c1[nH]nc(-c2ccc(N3[C@@H]4CC[C@H]3C[C@@H](OCc3c(-c5ccccc5OC(F)(F)F)noc3C3CC3)C4)cc2)o1 [Example 65, 5-(4-((1R,3r,5S)-3-((5-cyclopropyl-3-(2-(trifluoromethoxy)phenyl)isoxazol-4-yl)methoxy)-8-azabicyclo[3.2.1]octan-8-yl)phenyl)-1,3,4-oxadiazol-2(3H)-one]",954 nM,0.0221 µM
"O=c1[nH]c(-c2ccc(N3[C@@H]4CC[C@H]3C[C@@H](OCc3c(-c5ccccc5OC(F)(F)F)noc3C3CC3)C4)nc2)no1 [Example 66, 3-(6-((1R,3r,5S)-3-((5-cyclopropyl-3-(2-(trifluoromethoxy)phenyl)isoxazol-4-yl)methoxy)-8-azabicyclo[3.2.1]octan-8-yl)pyridin-3-yl)-1,2,4-oxadiazol-5(4H)-one]",247 nM,0.003 µM
"O=c1[nH]nc(-c2ccc(N3[C@@H]4CC[C@H]3C[C@@H](OCc3c(-c5ccccc5OC(F)(F)F)noc3C3CC3)C4)cc2)c(=O)[nH]1 [Example 67, 6-(4-((1R,3r,5S)-3-((5-cyclopropyl-3-(2-(trifluoromethoxy)phenyl)isoxazol-4-yl)methoxy)-8-azabicyclo[3.2.1]octan-8-yl)phenyl)-1,2,4-triazine-3,5(2H,4H)-dione]",65.7 nM,0.0127 µM
"O=c1[nH]nc(-c2ccc(N3[C@@H]4CC[C@H]3C[C@@H](OCc3c(-c5ccccc5OC(F)(F)F)noc3C3CC3)C4)nc2)o1 [Example 68, 5-(6-((1R,3r,5S)-3-((5-cyclopropyl-3-(2-(trifluoromethoxy)phenyl)isoxazol-4-yl)methoxy)-8-azabicyclo[3.2.1]octan-8-yl)pyridin-3-yl)-1,3,4-oxadiazol-2(3H)-one]",168 nM,0.0264 µM
"O=c1cc(-c2ccc(N3[C@@H]4CC[C@H]3C[C@@H](OCc3c(-c5ccccc5OC(F)(F)F)noc3C3CC3)C4)nc2)o[nH]1 [Example 69, 5-(6-((1R,3r,5S)-3-((5-cyclopropyl-3-(2-(trifluoromethoxy)phenyl)isoxazol-4-yl)methoxy)-8-azabicyclo[3.2.1]octan-8-yl)pyridin-3-yl)isoxazol-3(2H)-one]",57.6 nM,0.0095 µM
